Experimental data reported in US9624549B2, “Stable gene targets in breast cancer and use thereof for optimizing therapy” (Cytognomix Inc., priority 2012, dated 2017).
“And” between values parts separate entries of the source, which are not always exact repeats. Equal values may be shown once. Read-outs that look alike come from different tables or passages of the source.

How the values were obtained:
T47D = T47D cell line; replicate assays; cited from earlier work
BT549 = BT549 cell line; replicate assays; cited from earlier work
MCF7 = MCF7 cell line; replicate assays; cited from earlier work
MDAMB231 = conditions: MDA231 (MDAMB231) cell line; replicate assays; cited from earlier work
HS578T [1] = experiment: GI50 of breast cancer cell lines from NCI60 panel; format: cell-based; conditions: Homo sapiens, Hs-578T, mean of replicate GI50s, read-out: mean concentration (GI50) (converted)
Excerpt: Certain anti-breast cancer therapies have been evaluated in the NCl-60 panel of cancer cell lines (Staunton J E, Slonim D K, Coller H A, Tamayo P, Angelo M J, Park J, Scherf U, Lee J K, Reinhold W O, Weinstein J N and others. 2001. Chemosensitivity prediction by transcriptional profiling. Proc Natl Acad Sci USA 98:10787-92.) including four cell lines we studied (MCF7, MDA-MB-231, HS578T, and T-47D). We have confirmed stable copy numbers for a representative group of target genomic intervals in 5 breast cancer lines (MCF7, MDAMB231, HS578T, T47D and SKBR-3). Despite the lack of stratification in pathology in the tumors studied, genomic architectures and functions were preserved in these regions. Paclitaxel and its derivatives, estrone, estradiol, and topotecan are common therapies that act on multiple products encoded by dually stable genes which may, in part, explain why they are effective for inhibiting growth of these cell lines and for treating breast cancer.

HS578T [2] = conditions: HS578T cell line; replicate assays; cited from earlier work
[3] = system: triple-negative breast cancer cell lines; conditions: triple-negative breast cancer cell lines (Liu et al. 2009); cited from earlier work

SMILES | GI50 (T47D) | GI50 (BT549) | GI50 (MCF7) | GI50 (MDAMB231) | GI50 (HS578T [1]) [µM] | GI50 (HS578T [2]) | anti-cancer activity [3]
CC[C@@]1(O)C(=O)OCc2c1cc1n(c2=O)Cc2cc3c(CN(C)C)c(O)ccc3nc2-1 [To, topotecan] | 8.24 −log10M and 7.82 −log10M and 7.73 −log10M | 7.36 −log10M and 7.05 −log10M and 7.32 −log10M | 8.09 −log10M and 7.79 −log10M and 7.83 −log10M | 6.41 −log10M and 5.67 −log10M and 5.65 −log10M | 28.2 | 5.96 −log10M and 5.14 −log10M and 5.73 −log10M | –
S=c1nc[nH]c2nc[nH]c12 [Me, mercaptopurine] | 5.45 −log10M and 5.62 −log10M | 4.52 −log10M and 3.74 −log10M and 4.00 −log10M | 5.78 −log10M and 5.74 −log10M and 5.82 −log10M | 4.61 −log10M and 5.14 −log10M | – | 4.85 −log10M and 4.84 −log10M | –
CC(=O)O[C@H]1C(=O)[C@@]2(C)[C@H]([C@H](OC(=O)c3ccccc3)[C@]3(O)C[C@H](OC(=O)[C@H](O)[C@@H](NC(=O)c4ccccc4)c4ccccc4)C(C)=C1C3(C)C)[C@]1(OC(C)=O)CO[C@@H]1C[C@@H]2O [Pa, Paclitaxel] | 6.56 −log10M and 7.27 −log10M and 6.91 −log10M | 9.30 −log10M and 7.60 −log10M and 8.45 −log10M | 9.06 −log10M and 8.01 −log10M and 8.53 −log10M | 8.56 −log10M and 7.27 −log10M and 7.91 −log10M | 0.00316 | 8.81 −log10M and 8.22 −log10M and 8.52 −log10M | –
CN(C)C(=N)N=C(N)N [Metformin] | – | – | – | – | – | – | has anti-cancer activity
Nc1ccn([C@@H]2O[C@H](CO)[C@@H](O)C2(F)F)c(=O)n1 [Gm, gemcitabane] | 6.26 −log10M and 8.00 −log10M and 5.86 −log10M | 7.80 −log10M and 8.00 −log10M | 7.99 −log10M and 8.00 −log10M | 5.86 −log10M and 6.28 −log10M and 6.03 −log10M | – | 5.65 −log10M and 4.00 −log10M | –
